What was measured:
[1] = system: articular cartilage of the right knee joint, MIA-induced OA; experiment: Histopathologic analysis of right knee joint tissue (modified Mankin scoring), MIA-induced OA; type: in vivo, Sprague Dawley rats; conditions: rats; for morphological observation of articular cartilage of the right knee joint: 30 μL intraarticular on day 3 and day 14, day 28, versus pathological control, data not shown
Procedure: The Sprague Dawley rats were divided into five groups, including one normal control group, one pathological control group, one comparative group, and two experimental groups (i.e., experimental groups 1 to 2) (n=5 rats in each group).
The right knee joint of the respective rat in the pathological control group, the comparative group, and the experimental groups 1 and 2 was intraarticularly injected with 30 μL of a monosodium iodoacetate (MIA) solution (50 g/L, in 0.9% normal saline). In addition, the right knee joint of the respective rat in the normal control group was intraarticularly injected with 30 μL of 0.9% normal saline. […]
The tissue section was subjected to hematoxylin-eosin staining, and Safranin 0 and fast green staining using a staining protocol well-known to those skilled in the art, and was then observed under an optical microscope (Olympus, CKX41) at a magnification of 200×. Two areas of the respective tissue section were randomly selected and photographed, and pathological changes (such as cartilage damage, chondrocyte loss, and proteoglycan loss) in the respective tissue section was assessed according to the modified Mankin scoring system described in Pauli C. et al. (2012), Osteoarthritis Cartilage, 20:476-485. The degrees of cartilage damage, chondrocyte loss, and proteoglycan loss were scored on a scale from 1 to 5. […]
The data thus obtained were analyzed according to the method described in section 1 of the “General Procedures”.

[2] = system: TNF-α, IL-1β, IL-6, IL-17A, IFN-γ and IL-8 in sole tissue, CII-induced RA; experiment: Inflammatory markers in sole tissue (ELISA), collagen-induced RA; type: in vivo, DBA/1 mice; conditions: mouse sole tissue
Procedure: 2 mg/mL of a Chick type II collagen (CII) solution (Chondrex Inc., Cat. No. 20012) (in 10 mM acetic acid) was mixed with complete Freund's adjuvant (Sigma Aldrich, Cat. No. F5881-10ML) at a ratio of 1:1 (v/v), so as to obtain a first CII emulsion. 2 mg/mL of a Chick type CII solution was mixed with incomplete Freund's adjuvant (ChemCruzx, Cat. No. sc-24648) at a ratio of 1:1 (v/v), so as to obtain a second CII emulsion.
The female DBA/1 mice were divided into five groups, including one normal control group, one pathological control group, one comparative group, and two experimental groups (i.e., experimental groups 1 to 2) (n=6 mice in each group). 200 μL of the first CII emulsion was injected subcutaneously into the tail of the respective mouse of the pathological control group, the comparative group, and the two experimental groups. The mice were subjected to a boost injection using 200 μL of the second CII emulsion on the 21st day after the initial immunization, so as to induce the occurrence of RA. In addition, the rats of the normal control group were injected with an adjuvant solution (in PBS).
After completion of the boost injection, the respective mouse in the comparative group was intraperitoneally injected with 100 μL of 1% HA, the respective mouse in the experimental group 1 was intraperitoneally injected with 100 μL of the EGF solution (containing 20 μg/g EGF) prepared in section C of Example 1, the respective mouse in the experimental group 2 was intraperitoneally injected with 100 μL of the mixture solution (containing 20 μg/g EGF) prepared in section C of Example 1. Each mouse was administered once daily for a total period of 20 days.
After completion of the evaluation of RA severity as described in section C of this example, the mice in each group were sacrificed by virtue of 95% CO2 asphyxiation, and the knee joint tissue of the hind leg and the sole tissue were obtained from each mouse carcass. The knee joint tissue of the hind leg of each mouse was subjected to histological sectioning, hematoxylin-eosin staining, and microscopic observation in sequence according to the methods described in section F of Example 1.
100 mg of the sole tissue of each mouse obtained in section D of this example was subjected to a freezing treatment with liquid nitrogen, followed by grinding. The resultant ground tissue was mixed with 1 mL of a tissue lysis buffer (Gold Biotechnology, Inc., Cat. No. GB-181-100) (containing protease inhibitor cocktail), followed by determining the contents of TNF-α, IL-1β, IL-6, IL-17A, IFN-γ, and IL-8 respectively using a TNF-α ELISA kit (BioLegend, Cat. No. 430904), an IL-1β ELISA kit (BioLegend, Cat. No. 432604), an IL-6 ELISA kit (BioLegend, Cat. No. 431304), an IL-17A ELISA kit (BioLegend, Cat. No. 432504), an IFN-γ ELISA kit (BioLegend, Cat. No. 430807), and an IL-8 ELISA kit (MyBioSource, Cat. No. MBS261967) in accordance with the manufacturer's instructions.
The data thus obtained were analyzed according to the method described in section 1 of “General Procedures”.

Row | Substance | scale of OA (modified Mankin scoring, scale 1 to 5) ([1]; 30 μL intraarticular on day 3 and day 14, day 28, FIG. 2) | morphological observation of articular cartilage of the right knee joint [1] | content of IL-1β ([2]; FIG. 8) | content of IL-6 ([2]; FIG. 8) | content of TNF-α ([2]; FIG. 8) | content of IFN-γ ([2]; FIG. 9) | content of IL-8 ([2]; FIG. 9) | content of IL-17A ([2]; FIG. 9)
1 | EGF: Epidermal growth factor (Cat. No. 02-108, Joycom Bio-chem) dissolved in PBS, 20 μg/g EGF; given to experimental group 1 (NSDSECPLSHDGYCLHDGVCMYIEALDKYACNCVVGYIGERCQYRDLKWWELR; UniProt P01133 971-1023, looked up) | significantly lower than that determined in the pathological control group | fewer cracks and a smoother surface, and less chondrocyte and proteoglycan loss were observed | apparently or significantly lower than those determined in the pathological control group | apparently or significantly lower than those determined in the pathological control group | apparently or significantly lower than those determined in the pathological control group | apparently or significantly lower than those determined in the pathological control group | apparently or significantly lower than those determined in the pathological control group | apparently or significantly lower than those determined in the pathological control group
2 | hyaluronic acid [HA, reference compound] |  | fewer cracks and a smoother surface, and less chondrocyte and proteoglycan loss were observed |  |  |  |  |  | 
